The numbers were not newly measured in US20090017243A1, “Conveyor lubricant, passivation of a thermoplastic container to stress cracking and thermoplastic stress crack inhibitor” (Ecolab Inc., priority 1999, published 2009), which cites them from elsewhere.

For this data set the following is noted: 96 wt. % solution of glycerol in water.

As for `OCC(O)CO` [glycerol], the specific gravity is listed as 1.25.
